Key:
[1] = test system: contact sensitivity response to 2,4-dinitrofluorobenzene (DNFB) in Balb/c female mice; test: Contact sensitivity response to DNFB in mice (delayed-type hypersensitivity, ear swelling); assay type: in vivo
Method: Balb/c female mice (.perspectiveto. 20 g; Charles River) were sensitized on the shaved abdomen with 25 μl of 0.5% 2,4-dinitrofluorobenzene (DNFB, Eastman Kodak Co.) in a vehicle of 4:1 acetone:olive oil on days 0 and 1. Mice were ear challenged with 20 μl of 0.2% DNFB in a vehicle of 4:1 acetone:olive oil on day-5. An identical segment of the ear was measured immediately before challenge and 24 hours later with an engineer's micrometer. Ear swelling was expressed as the difference in ear thickness before and after challenge in units of 10^-4 inches ± SEM. Percent suppression was calculated as: [formula] Compounds were administered orally from day-2 through day-6 and were prepared in 0.25% Methocel® (Dow Chemical Co.). Control animals received only vehicle (0.25% Methocel®). Negative controls were not sensitized on days 0 and 1 but were ear challenged on day-5. Ten mice were used per group.
Contact sensitivity to DNFB is a form of delayed-type hypersensitivity which has been extensively studied to gain an understanding of the regulation of immunologic processes (Claman et al. (1980), Immunological Rev. 50:105-132). This reaction is mediated by T lymphocytes that become sensitized to antigen by proliferating and developing into mature effector cells (Claman et al. (1980), Immunological Rev. 50:105-132). This cell-mediated immune response (T-cell mediated immunity) is central to many disease states such as organ transplantation rejection and graft versus host disease (Benacerraf and Unanue (1979), Textbook of Immunology, Williams & Wilkins Co.; Eisen (1980), Immunology, An Introduction to Molecular and Cellular Principles of the Immune Responses, Harper & Row, Inc.; Loveland and McKenzie (1982), Immunology 46:313-320; Gallin et al. (1988), Inflammation, Basic Principles and Clinical Correlates, Raven Press). […]

[2] = test system: human mixed lymphocyte reaction (peripheral blood mononuclear cells, PBMC); test: Human mixed lymphocyte reaction (3H-thymidine incorporation); assay type: cell-based
Method: Blood was obtained by venipuncture from two nonrelated human donors. Peripheral blood mononuclear cells (PBMC) were isolated from these samples by using the Leuco Prep procedure (Becton-Dickinson). PBMC were washed twice in phosphate buffered saline (without calcium and magnesium) and the separate cell isolations were adjusted to the appropriate concentrations in media (RPMI 1640) supplemented with 10% human AB serum and […] gentamicin. Cells from donor A (2×10^5) were incubated with cells from donor B (2×10^5) in 96 well round bottom microliter plates at 37° C., 5% CO2 for 6 days. Eighteen hours prior to harvesting cells from the plates, all wells were pulsed with 1 μCi of ^3 H-thymidine. Cells from the plates were harvested on day-6 and 3H-thymidine incorporation was determined using a scintillation counter.
The human mixed lymphocyte reaction model, is an in vitro model for transplantation rejection.

[3] = clinical use; cited from earlier work

Row | Compound | % Suppression ([1]; 20.0 mg/kg orally, day-2 through day-6, of ear swelling) [%] | Ear Swelling (increase in ear thickness from day 5 to day 6) ([1]; 20.0 mg/kg orally, day-2 through day-6, units ± SEM, ten mice per group, 24 hours after challenge) | immunosuppressive activity (in words) ([1]; statement in words) | IC50 ([2]; Homo sapiens, Lymphocyte, 6 days incubation, 3H-thymidine pulse 18 hours prior to harvest) [nM] | human mixed lymphocyte reaction (in words) ([2]; statement in words, compared with CSA) | Significant clinically observed toxicities [3]
1 | O=C([O-])c1c2c(nc3ccc(F)cc13)-c1ccc(-c3ccccc3)cc1CC2.[Na+] [Example 12, 5,6-dihydro-9-fluoro-3-phenylbenz-[c]acridine-7-carboxylic acid, sodium salt] | 99.75 | 2.44 ± 1.62 10^-4 inches | have immunosuppressive activity | 65 | comparable to CSA | 
2 | Cn1cnc([N+](=O)[O-])c1Sc1ncnc2nc[nH]c12 [azathioprine] |  |  |  |  |  | hepatoxicity

From patent US5190753A, “3-phenyl-5,6-dihydrobenziciacridine-7-carboxylic acids and related compounds as immunosuppressive agents” (Du Pont Merck Pharmaceutical Company, priority 1992, dated 1993)
